Values quoted from earlier work as cited in patent publication US20240360088A1, “WATER-SOLUBLE NERVE DYES FOR IN VIVO NERVE-SPECIFIC IMAGING” (Oregon Health & Science University, priority 2021, published 2024).

System: rodent nerves
Conditions: for nerve specificity: direct and systemic administration, preclinical

Row | SMILES | fluorescence signal for real time imaging (co-solvent formulation as vehicle for intravenous injection) | nerve specificity | nerve-specific signal (systemic administration)
1 | CCNc1cc2oc3cc(=[N+](CC)CC)ccc-3nc2cc1C [Comparative Example No. 1, 3-(diethyl-14-azaneylidene)-N-ethyl-8-methyl-3H-phenoxazin-7-amine] | adequate fluorescence signal | high nerve specificity | –
2 | CC/N=c1/cc2oc3cc(NCC)c(C)cc3nc-2cc1C [Oxazine 4] | – | high nerve specificity | nerve-specific signal following systemic administration in all rodent nerves
